{
  "source": "patent US20170348231A1",
  "about": "“COMPOSITION AND METHOD FOR BUCCAL ADMINISTRATION OF GnRH AGONISTS” (NHTherapeutics INC, priority 2016, published 2017)",
  "key": {"[1]": {"tested_on": "male beagle dogs", "assay": "Oromucosal (buccal) spray in male beagle dogs, testosterone response", "assay_type": "in vivo", "conditions": "0.5 mg oromucosal spray", "protocol": "The GnRH analogue leuprorelin acetate (leuprolide acetate) which is available as an injectable, was reformulated as described in Example 3. This spray was administered to male beagle dogs at a dose of 0.5 mg suspended in 140 μl and dispensed in a single spray to the inner cheek of male beagle dogs (studies 1 and 2). In addition, formulation 2 was sprayed to the mucosae at the back of the throat in a separate study to determine if this would alter the absorption characteristics (study 3). The two formulations were administered with a one week washout period. Drug was dispensed in a single spray with a volume of 140 μl (studies 1 and 2) or three consecutive sprays (study 3). The aim of the study was to determine if leuprolide could be delivered as an oralmucosal spray and to determine the minimum exposure required to increase levels of testosterone.\nThe blood levels for leuprolide were monitored 15 minutes before the start of the study and at time “0” (immediately after drug administration), then at 15, 30 minutes and at 1, 2, 3 and 5 hours (postdosing; studies 1 and 2). In addition, for study 3, two additional time points were included at 5 and 10 min post dosing. […]\nThe study was conducted by the University Health Network in Toronto and specifically at the Toronto Western Hospital. Serum samples were analysed at Inventiv Health in Quebec City."}, "[2]": {"conditions": "intranasal; cited from earlier work"}, "[3]": {"tested_on": "patient suffering from hypogonadotropic hypogonadism", "conditions": "intranasal, daily administration of a low dose; cited from earlier work"}, "[4]": {"tested_on": "normally menstruating females", "conditions": "25 μg LH-RH each, double stimulation on three consecutive days, 12 females; cited from earlier work"}},
  "data": [
    {"compound": "CCNC(=O)[C@@H]1CCCN1C(=O)[C@H](CCCNC(=N)N)NC(=O)[C@H](CC(C)C)NC(=O)[C@@H](CC(C)C)NC(=O)[C@H](Cc1ccc(O)cc1)NC(=O)[C@H](CO)NC(=O)[C@H](Cc1c[nH]c2ccccc12)NC(=O)[C@H](Cc1c[nH]cn1)NC(=O)[C@@H]1CCC(=O)N1", "note": "[Leuprolide acetate, leuprolide acetate]", "values": [
      {"measurement": "exposure levels at which the testosterone increase occurred", "setting": "[1]", "value": "at least 30 pg/ml"},
      {"measurement": "peak testosterone increase compared to baseline", "setting": "[1]; FIGS. 1a, b", "value": "~200", "unit": "%"}
    ]},
    {"compound": "CCNC(=O)[C@@H]1CCCN1C(=O)[C@H](CCCNC(=N)N)NC(=O)[C@H](CC(C)C)NC(=O)[C@@H](COC(C)(C)C)NC(=O)[C@H](Cc1ccc(O)cc1)NC(=O)[C@H](CO)NC(=O)[C@H](Cc1c[nH]c2ccccc12)NC(=O)[C@H](Cc1cnc[nH]1)NC(=O)[C@@H]1CCC(=O)N1", "note": "[buserelin]", "values": [
      {"measurement": "bioavailability", "setting": "[2]", "value": 3, "unit": "%"},
      {"measurement": "testosterone", "setting": "[3]", "value": "chronic and sustained increase in testosterone"}
    ]},
    {"compound": "luteinizing hormone-releasing hormone (QHWSYGLRPG; Gonadoliberin-1; UniProt P01148 24-33, looked up) [LH-RH, Native or physiological GnRH, hormone secreted by the hypothalamus]", "values": [
      {"measurement": "serum LH levels", "setting": "[4]", "value": "Increases in serum LH levels were found after each of the two stimulations"}
    ]}
  ]
}
